Results reported in paper PMC6269909, “Investigating the Antioxidant and Acetylcholinesterase Inhibition Activities of Gossypium herbaceam” (Molecules, 2013).
Where two headings read alike, the source gives them in different places.

Columns and labels:
[1] = DPPH radical scavenging assay; type: biochemical; details: Table 2, mean of three replicates, read-out: IC50 for inhibition of DPPH radical formation
Source text: (§1) The DPPH radical activity test was used to measure the hydrogen atom or electron donor capacity of the samples to the stable radical DPPH formed in liquid solution. Thus, it measures the capacity of the samples to scavenge free radicals in solution [17]. Proton radical scavenging is an important attribute of antioxidants. […] ABTS, a protonated radical, has characteristic absorbance at 734 nm which decreases with the scavenging of the proton radicals. […]
DPPH is a stable free radical that reacts with compounds that can donate a hydrogen atom. This method is based on the scavenging of DPPH through the addition of a radical species or an antioxidant that decolorizes the DPPH solution. The antioxidant activity is then measured by the extent of decrease in absorption at 515 nm. In brief, a 0.2 mM solution of DPPH in methanol was prepared, and 100 μL of this solution was added to 100 μL of the sample solution in methanol at varying concentrations. The solutions in the 96 well micro plates were shaken well and incubated in the dark for 30 minutes at room temperature. The absorbance was measured at 515 nm. A large decrease in the absorbance of the reaction mixture indicates substantial free radical scavenging activity of the compound. DPPH radical scavenging activity (%) = [(Abscontrol − Abscompound)]/(Abscontrol)] × 100 where Abscontrol is the absorbance of DPPH radical + methanol; Abscompound is the absorbance of DPPH radical + compound/standard.

[2] = ABTS radical scavenging assay; type: biochemical; details: Table 2, mean of three replicates, read-out: IC50 for inhibition of ABTS radical formation
Source text: as §1
The ABTS radical scavenging method was developed by Rice-Evans and Miller in 1994 and was then modified by Rice-Evants et al. in 1999. The modification is based on the activation of metmyo-globin with hydrogen peroxide in the presence of ABTS^•+ to produce a radical cation. This improved method generates a blue/green ABTS^•+ chromophore via the reaction of ABTS and potassium persulfate and is now widely used. The antioxidant activity is then measured by the decrease in absorption at 734 nm. In brief, ABTS radical cation (ABTS^•+) was produced by reacting ABTS stocking solution with […] potassium persulfate and kept in the dark at room temperature for 12–16 h before use. The samples containing the ABTS^•+ solution were diluted with methanol to obtain an absorbance of 0.700 (±0.02) at 734 nm and equilibrated at 30 °C. The ABTS^•+ solution was freshly prepared for each assay. Different concentrations of compounds (16 μL) were allowed to react with 184 μL of the ABTS^•+ solution and the absorbance was taken at 734 nm after 7 min using spectrophotometer. The ABTS^•+ scavenging capacity of the compound percentage inhibition was calculated using formula: ABTS radical scavenging activity (%) = [(Abscontrol − Abscompound)]/(Abscontrol)] × 100, where Abscontrol is the absorbance of ABTS radical + methanol; Abscompound is the absorbance of ABTS radical + compound/standard.

[3] = Lipid peroxidation assay (TBARS), egg yolk homogenates; type: biochemical; details: Table 2; egg yolk homogenate, FeSO4; mean of three replicates; read-out: IC50 for inhibition of peroxidation of lipids, estimated as thiobarbituric acid reactive substances
Protocol: Lipid peroxidation involves the formation and propagation of lipid radicals with numerous deleterious effects, including destruction of membrane lipids, metabolic disorders and inflammation, and production of malondialdehyde (MDA) is a hallmark of this process. Inhibition of lipid peroxidation was assessed by amount of MDA produced. Lipids in egg yolk undergo rapid nonenzymatic peroxidation in the presence of ferrous sulphate. […] Phenolics present in plant sources have received considerable attention over the past decade because of their potential to prevent lipid peroxidation and diseases associated with it.
A modified thiobarbituric acid-reactive species (TBARS) assay was used to measure the lipid peroxide formed, using egg yolk homogenates as lipid-rich media. Adapted TBARS method was employed to measure the antioxidant capacity. Briefly, egg homogenate (100 μL of 1:25, v/v in phosphate-buffered saline (PBS) PH 7.4) and 10 μL of different concentrations of sample were added to a test tube as well as added 25 mmol/L freshly prepared FeSO4 made up to 300 μL with PBS. The homogenate was incubated at 37 °C for 15 min and then the reaction was stopped by adding 50 μL 15% w/v trichloroacetic acid (TCA) and centrifugation (3,500 rpm) for 15 min. An aliquot of 200 μL from supernatant was mixed with 100 μL thiobarbituric acid (TBA) and heated at 95 °C for 30 min.

[4] = target: T1, Acetylcholinesterase (AChE) type VI-S from electric eel (Electrophorus electricus, UniProt O42275); assay: biochemical
T1 construct: purchased Sigma (St. Louis, MO, USA)
T1 sequence (O42275 24-633): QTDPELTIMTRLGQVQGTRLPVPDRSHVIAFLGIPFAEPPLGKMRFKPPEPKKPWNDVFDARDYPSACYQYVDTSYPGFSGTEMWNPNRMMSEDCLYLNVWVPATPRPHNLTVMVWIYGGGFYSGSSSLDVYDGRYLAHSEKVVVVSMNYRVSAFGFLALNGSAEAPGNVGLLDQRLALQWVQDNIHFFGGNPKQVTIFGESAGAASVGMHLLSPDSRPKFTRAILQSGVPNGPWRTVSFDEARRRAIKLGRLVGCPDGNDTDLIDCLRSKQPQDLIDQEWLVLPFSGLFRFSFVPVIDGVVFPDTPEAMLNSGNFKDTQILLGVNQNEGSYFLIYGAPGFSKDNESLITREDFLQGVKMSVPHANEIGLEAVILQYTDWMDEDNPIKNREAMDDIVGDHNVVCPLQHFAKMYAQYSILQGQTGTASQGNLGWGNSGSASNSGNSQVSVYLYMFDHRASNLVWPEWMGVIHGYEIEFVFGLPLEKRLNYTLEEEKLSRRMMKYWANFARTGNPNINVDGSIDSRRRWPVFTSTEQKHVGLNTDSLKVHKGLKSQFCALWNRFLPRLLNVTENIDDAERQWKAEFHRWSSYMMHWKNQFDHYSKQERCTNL
Source text: Acetylcholinesterase (AChE) type VI-S from electric eel, 5-5′-dithiobis-[2-nitrobenzoicacid] (DTNB), 1-1-diphenyl-2-picrylhydrazyl (DPPH), 2,2'-azinobis-(3-ethylbenzothiazoline-6-sulfonic acid) (ABTS), acetylthiocholine iodide (AChI), dimethyl sulfoxide (DMSO), ferrous sulfate (FeSO4·7H2O), thiobarbituric acid (TBA), trichloroacetic acid (TCA), potassium ferricyanide were obtained from Sigma (St. Louis, MO, USA). L-3-ketothreohexuronic acid lactone (vitamin C) and huperzine A were purchased from the National Institutes for Food and Drug Control, Beijing, China. All the other reagents were of analytical grade.
Inhibition of acetyl cholinesterase activity of samples was measured by the micro-plate assay adapted. AChE inhibitory activity was measured by slightly modifying the spectrophotometric method from the literature which was initially developed by Ellman. Briefly, in this method, 100 μL of […] sodium phosphate buffer (pH = 8.0), 20 μL of DTNB, 20 μL of test solution and 2 μL of AChE solution were added using a multichannel automatic pipette into a 96-well micro plate and incubated for 15 min at 25 °C.

PC12 cells = assay: tBHP exposure in PC12 cells, cell viability (MTT); type: cell-based, Rat; details: for Protection against tBHP-induced cell death in PC12 cells (cell viability, MTT): pre-treated 100 μM for 24 h, then tBHP 200 μM for 3 h, p < 0.05
Protocol: tBHP caused a reduction in cell viability with an IC50 value for PC12 cells death at 200 μM. PC12 cells were an established model of nerve growth factor (NGF) - induced neurite formation. […] In the control sample, the value of cell viability was set to be 100%.
Rat pheochromocytoma cells (PC12) cells were kindly donated by Professor Dong T. X. (The Hong Kong University of Science and Technology, Hong Kong, China). PC12 cells were maintained in 75 cm culture flasks containing 20 mL of RPMI-1640 media supplemented with 1% FBS, 1% L-glutamine, 1% non-essential amino acids and 1% penicillin/streptomycin. Cells were maintained in an incubator at 37 °C with 5% CO2. Experiments and cell maintenances were performed in a laminar flow hood under sterile conditions. Cells were passaged every 4–5 days and detached from flasks using 1× trypsin EDTA. Cell counts were performed using trypan blue to stain non viable cells, which were excluded from the count. Ninety-six well plates were used for cell viability experiments. The cells were then allowed to equilibrate for 24 h before the experiment.
H2O2 is a well established pro-oxidant in PC12 cells over the concentration range used. tBHP shares some of the same properties of H2O2 but generates a more shallow neurotoxicity response over a wider concentration range than H2O2 in PC12 cells and elicits greater lipid peroxidation. […] For anti-oxidation effect, the cultures were treated with tBHP (200 μM) for 3 h. Cultures were subjected to cell viability test using the colorimetric MTT assay. Purple crystal inside the cells was dissolved by DMSO and measured by absorbance at 570 nm.

[5] = Table 2, mean of three replicates, read-out: IC50 for inhibition of AChE

SMILES	IC50 ([1]; listed as quercetin) [µM]	IC50 [1] [µM]	IC50 ([2]; listed as quercetin) [µM]	IC50 [2] [µM]	IC50 [3] [µM]	IC50 [4, 5] [µM]	IC50 [4] [µM]	Protection against tBHP-induced cell death in PC12 cells (cell viability, MTT) (PC12 cells)	IC50 (PC12 cells; reduction in cell viability by tBHP, read-out: IC50 value for PC12 cells death) [µM]
O=c1c(O)c(-c2ccc(O)c(O)c2)oc2cc(O)cc(O)c12 [Quercetin]	19.6	0.84	0.84	19.6	13.1	–	–	–	–
COc1cc(-c2oc3cc(O[C@@H]4O[C@H](CO)[C@@H](O)[C@H](O)[C@H]4O)cc(O)c3c(=O)c2O)ccc1O [Isorhamnetin-7-O-β-D-glucopyranoside]	–	1.73	–	21.8	7.2	55.7	–	–	–
O=c1c(O[C@@H]2O[C@H](CO)[C@@H](O)[C@H](O)[C@H]2O)c(-c2ccc(O)c(O)c2)oc2cc(O)cc(O)c12 [Isoquercetin]	–	3.65	–	26.9	8.81	–	57	–	–
O=c1c(O)c(-c2ccc(O)cc2)oc2cc(O)cc(O)c12 [Kaempferol]	–	5.52	–	41.4	–	–	–	could exert the anti-oxidation effect in protecting the tBHP-induced cell death	–
O=c1c(O)c(-c2ccc(O)c(O)c2)oc2cc(OC3OC(CO)C(O)C(O)C3O)cc(O)c12 (stereo not drawn) [Quercimeritin]	–	3.69	–	24.9	6.85	–	52.3	could exert the anti-oxidation effect in protecting the tBHP-induced cell death	–
O=c1c(O[C@@H]2O[C@H](CO)[C@@H](O)[C@H](O)[C@H]2O)c(-c2ccc(O)c(O)c2)oc2cc(O[C@@H]3O[C@H](CO)[C@@H](O)[C@H](O)[C@H]3O)cc(O)c12 [Quercetin-3,7-di-O-β-D-glucopyranosid]	–	5.48	–	50.8	33.4	67.1	–	–	–
CC(C)(C)OO [tBHP, tertiary butyl hydroperoxide, reference compound]	–	–	–	–	–	–	–	–	200
O=c1c(O[C@@H]2O[C@H](CO)[C@H](O)[C@H](O)[C@H]2O)c(-c2ccc(O)c(O)c2)oc2cc(O)cc(O)c12 [Hyperoside]	–	11.2	–	113	7.47	–	94.6	–	–
O=c1c(O)c(-c2ccc(O)c(O[C@@H]3O[C@H](CO)[C@@H](O)[C@H](O)[C@H]3O)c2)oc2cc(O)cc(O)c12 [Quercetin-3′-O-β-D-glucoside]	–	3.75	–	34.7	8.9	88.6	–	could exert the anti-oxidation effect in protecting the tBHP-induced cell death	–
O=C1O[C@H]([C@@H](O)CO)C(O)=C1O [Vit C, L-3-ketothreohexuronic acid lactone, reference compound]	–	–	–	–	–	–	–	protect the cells against oxidation significantly	–
